According to article PMC5816697 (European journal of medicinal chemistry, 2018):
“Also recorded” adds a separate entry of the source.

Experiments:
[1] = tested on: phosphorylation of MEK and ERK (BRAF^V600E downstream signaling); assay: Western blot of MEK/ERK phosphorylation in A375 cells; assay type: cell-based
panel of 244 kinases = assay: Kinome profiling against a panel of 244 kinases; assay type: biochemical; settings: 1 μM compound
[2] = tested on: phosphorylation of Abl at Y412; assay: Immunoblot of Abl Y412 phosphorylation in BCR-ABL-expressing Ba/F3 cells; assay type: cell-based
Ba/F3 BCR-ABL = assay: MTT growth inhibition assay, Ba/F3 cells expressing Bcr-Abl; assay type: cell-based; settings: ratio of IC50 values

Question: With `CCn1nc(C#Cc2cccc3cc(-c4cccc(C(F)(F)F)c4)ncc23)c2c(N)ncnc21` [Compound 2d, 1-Ethyl-3-((3-(3-(trifluoromethyl)phenyl)isoquinolin-8-yl)ethynyl)-1H-pyrazolo[3,4-d]p yrimidin-4-amine] as the compound, how does the “effect on phosphorylation of MEK” value ([1]; concentrations up to 100 μM) read?
Answer: Its value is “failed to suppress the phosphorylation of MEK; also recorded: little effects”.

Question: For `CC(C)n1nc(C#Cc2cccc(NC(=O)c3cccc(C(F)(F)F)c3)c2)c2c(N)ncnc21` [Compound 1], which “number of kinases inhibited by over 90%” value (panel of 244 kinases) is on record?
Answer: The value was 44.

Question: What does the source list for `CCCS(=O)(=O)Nc1ccc(F)c(C(=O)c2c[nH]c3ncc(-c4ccc(Cl)cc4)cc23)c1F` [Vem, vemurafenib, reference compound]?
Answer: effect on phosphorylation of MEK and ERK ([1]; concentrations above 1 μM): abolished the phosphorylation of MEK and ERK; effect on phosphorylation of MEK ([1]; various concentrations, Figure 4): potently blocked phosphorylation of MEK

Question: Which “fold lower potency than compound 1, Abl Y412 phosphorylation” value [2] does the source give for `CC(C)n1nc(C#Cc2cccc3cc(-c4ccc(CN5CCN(C)CC5)cc4)ncc23)c2c(N)ncnc21` [Compound 2f, 1-Isopropyl-3-((3-(4-((4-methylpiperazin-1-yl)methyl)phenyl)isoquinolin-8-yl)ethynyl)-1H-pyrazolo[3,4-d]pyrimidin-4-amine] here?
Answer: Its value is “approximately 30 fold”.

Question: What about the “fold less potent than parent compound 1 against Bcr-Abl Ba/F3 cells” value (Ba/F3 BCR-ABL) of the same compound?
Answer: Its value is 44 fold.
